Experimental data taken from patent publication US7943358B2, “Polymerase enhancing factor (PEF) extracts, PEF protein complexes, isolated PEF protein, and methods for purifying and identifying” (Agilent Technologies, Inc., priority 1997, dated 2011).
Where “and” joins values, the source holds several entries; their conditions need not be identical. Identical values can stand only once.

How the values were obtained:
[1] = Heat treatment of dCTP at 95° C., reverse phase HPLC; type: physicochemical
Procedure: FIG. 18. Reverse phase HPLC analysis of the products generated by heat-treatment of dCTP. dCTP (10 mM in cloned Pfu DNA polymerase PCR buffer) was heated at 95° C. in thin-walled tubes in a RoboCycler 40 temperature gradient block. Incubations were carried out for the following length of time: 0 (panel A), 1 hour (panel 6), or 4 hours (panel C). 10 μl of the reaction mixtures were loaded onto a Waters Delta-pak C18 column (300 angstrom/15 μm), equilibrated in 50 mM triethylammonium acetate, pH (7.0) (A). Products were eluted with acetonitrile (B) at 2 ml/min., using the following gradient: 0% B for 5 minutes, 0-10% B over 20 minutes. Absorbence of the eluate was monitored with a photodiode array detector, and peak areas were integrated at 260 nm. To the right of panels A and C are shown the same chromatograms re-integrated at a higher sensitivity. In panel D, 10 μl of 10 mM dUTP (in cloned Pfu DNA polymerase PCR buffer) was chromatographed.
dUTP, however, is not intentionally added to PCR reactions but may be generated by spontaneous deamination of dCTP during the high temperatures used in PCR cycling (Jens-Peter Horst and Hans-Joachim Fritz. (1996) The EMBO Journal 15; 5459-5469). To assess the extent of dCTP deamination to dUTP during PCR, we incubated dCTP (10 mM) at 95° C. (PCR denaturation temperature) in the presence of cloned Pfu DNA polymerase PCR buffer. The products of heat treatment were analyzed by reverse phase-HPLC (as described above) and peak assignments were made by comparing retention times to those of standards. […] A minor peak at 12.38 minutes was also produced (0.049%/1 hr.; 0.116%/4 hr.), which was identified as dUTP, based upon its retention time (dUTP standard=12.10 minutes; panel D) and absorbence maximum.

[2] = PCR cycling of dCTP alone, HPLC; type: physicochemical; settings: 30 cycles
Procedure: FIG. 20. Reverse phase HPLC analysis of the products generated by PCR cycling dCTP. dCTP (10 mM in cloned Pfu DNA polymerase PCR buffer) was cycled alone (Panel A) or in the presence of 0.5 ng/μl PEF (Panel 8) or 1.25 U/μl Pfu DNA polymerase (Panel C). Cycling was carried out in a RoboCycler 40 using the following conditions: 95° C. 1 min./30 cycles of: 95° C. 1 min., 60° C. 1 min., 72° C. 10:24 min./72° C. 10 min. 10 μl of the reaction mixtures were chromatographed as described in the FIG. 18 legend. In panel D, the absorbance spectra of dCTP, dUTP, and the product generated from PCR cycling dCTP are compared. The absorbance spectra (200-300 nm) of the following were superimposed: (1) major peak at 8.3-8.8 min. from chromatogram of dCTP+Pfu unheated; (2) peak at 11.867 min. from chromatogram of dUTP in buffer unheated; (3) peak 12.150 from chromatogram C (FIG. 20) showing dCTP+Pfu cycled.
dUTP production was also measured during PCR cycling. A dCTP solution (10 mM dCTP in cloned Pfu DNA polymerase PCR buffer) was subject to PCR cycling in a RoboCycler 40 using the cycling conditions described for the 5.2 kb “on/off” system (example 1). Products generated during PCR were analyzed by HPLC as described above. After 30 cycles, the following products were evident: 79% dCTP, 19% dCDP, 1.8% dCMP, and 0.064% dUTP (FIG. 20, panel A). […] When dCTP was cycled in the presence of Pfu DNA polymerase (50×PCR conditions, 10 mM dCTP and 1.25 U Pfu/μl reaction mix) there was no difference in the amount of dCDP, dCMP, or dUTP produced (FIG. 20, panel C). However, when dCTP was cycled in the presence of PEF (50×PCR conditions, 10 mM dCTP and 0.5 ng PEF/μl reaction mix), the following products were produced: 73% dCTP, 19% dCDP, and 8% dCMP (FIG. 20, panel B).

[3] = biological target: T1, Pfu DNA polymerase (Pyrococcus furiosus, UniProt P61875); experiment: 0.9 kb α1-antitrypsin PCR in absence or presence of dUTP; type: biochemical
T1 sequence (P61875 1-775): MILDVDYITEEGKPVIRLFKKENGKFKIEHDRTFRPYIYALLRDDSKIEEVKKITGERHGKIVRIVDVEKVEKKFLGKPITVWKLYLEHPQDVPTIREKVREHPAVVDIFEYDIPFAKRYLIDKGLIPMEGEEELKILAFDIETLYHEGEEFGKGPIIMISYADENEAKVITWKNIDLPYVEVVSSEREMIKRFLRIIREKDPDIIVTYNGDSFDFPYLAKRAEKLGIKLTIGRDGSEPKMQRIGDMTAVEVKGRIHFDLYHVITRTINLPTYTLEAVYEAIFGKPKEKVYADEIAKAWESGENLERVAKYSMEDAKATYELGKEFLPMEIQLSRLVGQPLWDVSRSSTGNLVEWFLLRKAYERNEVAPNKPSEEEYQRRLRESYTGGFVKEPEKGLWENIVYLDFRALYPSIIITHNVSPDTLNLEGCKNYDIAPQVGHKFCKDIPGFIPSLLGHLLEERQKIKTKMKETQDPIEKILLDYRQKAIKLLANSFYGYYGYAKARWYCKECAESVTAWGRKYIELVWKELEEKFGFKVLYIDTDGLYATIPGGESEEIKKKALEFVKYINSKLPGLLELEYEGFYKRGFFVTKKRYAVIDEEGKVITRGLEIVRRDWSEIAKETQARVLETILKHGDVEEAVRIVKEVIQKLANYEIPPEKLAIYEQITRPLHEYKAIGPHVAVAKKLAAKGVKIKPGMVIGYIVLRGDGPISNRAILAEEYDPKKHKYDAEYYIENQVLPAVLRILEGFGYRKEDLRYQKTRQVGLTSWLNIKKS
Procedure: A relatively small (0.9 kb) fragment of the human α1-antitrypsin gene was amplified in the absence or presence of dUTP. PCR reaction mixtures contained the following (in a 100 μl volume): 1× Cloned Pfu polymerase buffer; 200 μM each, dCTP, dGTP, dATP; 200 ng oligo F91-23 (100 ng/μl); 200 ng oligo R980-23 (100 ng/μl); 125 ng Human genomic DNA; 2.5 units Pfu DNA polymerase; 200 μM total of (dTTP and dUTP) or (dTTP+PEF generated dUMP).
PCR cycling was carried out as follows: 95° C. for 1 minute (1 cycle); 95° C. for 1 minute—58° C. for 1 minute—72° C. for 2 minutes (30 cycles).
Seven ng of PEF can reverse the inhibition caused by as much as 20 μM dUTP (data not shown). The preferred amount of PEF or P45 used in a particular reaction can be optimized according to the principles provided here or by methods for quantifying amplification reactions known in the art.

[4] = biological target: T1, Pfu DNA polymerase; experiment: 0.9 kb α1-antitrypsin PCR with unrelated dU-containing or control oligonucleotide; type: biochemical; settings: per 100 ul reaction
[5] = Reverse phase HPLC analysis of dCTP conversion; type: biochemical
Procedure: The similarity of P45 to dCTP deaminases prompted us to test whether dCTP or other nucleotide triphosphates were substrates of PEF/P45. PEF was incubated with dCTP or dUTP and the reaction products were separated by reverse phase HPLC. Reaction mixtures (50 μl) containing 1× cloned Pfu polymerase buffer, 10 mM dCTP or dUTP, and 700 ng PEF (or 5 μl of cloned p45 (˜100 ng) or nothing (neg. control)) were incubated at 72° C. for 1 hour. The samples were injected on a […] Waters Delta-pak C-18 column (300 angstrom/15 μm), equilibrated in 50 mM triethylammonium acetate, pH (7.0) (A). Products were eluted with acetonitrile (B) at 2 ml/min. using the following gradient: 0% B for 5 minutes, 0-10% B over 20 minutes. Absorbence of the eluate was monitored with a photodiode array detector, and peak areas were integrated at 260 nm.

## Nc1ccn([C@H]2C[C@H](O)[C@@H](COP(=O)(O)OP(=O)(O)OP(=O)(O)O)O2)c(=O)n1 [dCTP]
[1]; 1 hr
  dCMP formed from dCTP: 2.8%
  dUTP formed from dCTP (12.38 minute peak): 0.049%
[1]; 1 hr, 10 mM in cloned Pfu PCR buffer
  dCDP formed from dCTP: 22%
[1]; 4 hr
  dCDP formed from dCTP: 41%
  dCMP formed from dCTP: 25%
  dUTP formed from dCTP (12.38 minute peak): 0.116%
[2]
  dCDP after PCR cycling: 19%
  dCMP after PCR cycling: 1.8%
  dCTP after PCR cycling: 79%
  dUTP after PCR cycling: 0.064%

## O=c1ccn([C@H]2C[C@H](O)[C@@H](COP(=O)(O)O)O2)c(=O)[nH]1 [dUMP]
[3]; at concentrations of 20 μM
  inhibition of Pfu polymerase-based PCR: not inhibitory

## O=c1ccn([C@H]2C[C@H](O)[C@@H](COP(=O)(O)OP(=O)(O)OP(=O)(O)O)O2)c(=O)[nH]1 [dUTP, deoxyuracil triphosphate]
[3]; 0.1% of the dTTP+dUTP pool
  dUTP concentration partially inhibiting amplification of the 900 bp product: 0.2 µM
[3]; as low as, 1% of the dTTP+dUTP pool
  dUTP concentration completely inhibiting amplification of the 900 bp product: 2 µM

## control oligonucleotide: control oligo with dT rather than dU (SEQ ID NO: 86) (GGTTTTCCCAGTCACGACGTTGTAAAACGACGGCCAGT; DNA, backbone not given here)
[4]
  amount of oligo showing inhibition of the Pfu-based PCR: 16 pmol and 8 pmol

## dU oligo: unrelated primer complementary to M13 DNA containing 9 dUs instead of dTs (SEQ ID NO: 87) (GGUUUUCCCAGUCACGACGUUGUAAAACGACGGCCAGU; DNA, backbone, methylation of C and T or U not given here; further chemistry not fully specified)
[4]
  amount of oligo showing inhibition of the Pfu-based PCR: 0.8 pmol

B1: P45: 45 kD component of the Pfu PEF complex, functions as a dUTPase (SEQ ID NO.: 71) (protein, listed as Pyrococcus furiosus)
chain: MLLPDWKIRKEILIEPFSEESLQPAGYDLRVGREAFVKGKLIDVEKEGKVVIPPREYALILTLERIKLPDDVMGDMKIRSSLAREGVIGSFAWVDPGWDGNLTLMLYNASNEPVELRYGERFVQIAFIRLEGPARNPYRGNYQGSTRLAFSKRKKL
[5]
  deamination of dCTP: No deamination
